The text below walks through data of patent publication US20050222127A1, “Use of Rho kinase inhibitors in the treatment of hearing loss, tinnitus and improving body balance” (Alcon, Inc., priority 2004, published 2005).

In assay [1] the target is T1, Human recombinant Rho kinase (ROKα/ROCK-II, aa 11-552) (Homo sapiens, UniProt O75116).
T1 construct: ROKα/ROCK-II, (aa 11-552), human active, catalog #14-451; purchased Upstate Biotechnology Co., Lake Placid, N.Y. 14-451
Put plainly: [γ-33P]-ATP-based Rho kinase assay. Type of assay: biochemical. As to conditions: mean ± SEM; 100 μM ATP, Long S6 substrate peptide 30 μM, 30 min at 30° C.; read-out: Rho Kinase Inhibition Constants (IC50), [γ-33P]-ATP-Based Assay. How it is done:
(§1) Rho kinase activity and inhibition of activity by test compounds in vitro is carried out using a radioactive assay or a fluorescence polarization assay as described herein.
The enzyme assays are performed using a Biomek 2000 Robotic Workstation (Beckman Instruments, Palo Alto, Calif.) in a 96-well format using [γ-^33P]-ATP (Perkin-Elmer Life Sciences, Boston, Mass.). Stock [γ-^33P] ATP (3000 Ci/mmol) is diluted to 1 μCi/μl with the MgCl2/ATP cocktail solution. The concentrations of MgCl2/ATP used are 15 mM and 100 μM, respectively. […] The substrate and enzyme are diluted in 20 mM MOPS buffer (pH 7.2), 25 mM β-glycerol phosphate, 5 mM EGTA, 1.0 mM sodium orthovanadate, and 1.0 mM DTT. Test compound dilutions are made in 10:10 dimethyl sulfoxide-ethanol (vol/vol). In the following order, substrate, enzyme, test compound dilution, and [γ-33P]-ATP are added to the 96-well plates for a final volume of 100 μl per well. […] The radioactivity captured on the filter mats is then determined on a beta-counter.

In assay [2] the target is T2, Rho kinase (ROCK II) (Homo sapiens, UniProt O75116).
T2 construct: purchased Molecular Devices, Sunnyvale, Calif
T2 sequence (O75116 whole entry, species assumed): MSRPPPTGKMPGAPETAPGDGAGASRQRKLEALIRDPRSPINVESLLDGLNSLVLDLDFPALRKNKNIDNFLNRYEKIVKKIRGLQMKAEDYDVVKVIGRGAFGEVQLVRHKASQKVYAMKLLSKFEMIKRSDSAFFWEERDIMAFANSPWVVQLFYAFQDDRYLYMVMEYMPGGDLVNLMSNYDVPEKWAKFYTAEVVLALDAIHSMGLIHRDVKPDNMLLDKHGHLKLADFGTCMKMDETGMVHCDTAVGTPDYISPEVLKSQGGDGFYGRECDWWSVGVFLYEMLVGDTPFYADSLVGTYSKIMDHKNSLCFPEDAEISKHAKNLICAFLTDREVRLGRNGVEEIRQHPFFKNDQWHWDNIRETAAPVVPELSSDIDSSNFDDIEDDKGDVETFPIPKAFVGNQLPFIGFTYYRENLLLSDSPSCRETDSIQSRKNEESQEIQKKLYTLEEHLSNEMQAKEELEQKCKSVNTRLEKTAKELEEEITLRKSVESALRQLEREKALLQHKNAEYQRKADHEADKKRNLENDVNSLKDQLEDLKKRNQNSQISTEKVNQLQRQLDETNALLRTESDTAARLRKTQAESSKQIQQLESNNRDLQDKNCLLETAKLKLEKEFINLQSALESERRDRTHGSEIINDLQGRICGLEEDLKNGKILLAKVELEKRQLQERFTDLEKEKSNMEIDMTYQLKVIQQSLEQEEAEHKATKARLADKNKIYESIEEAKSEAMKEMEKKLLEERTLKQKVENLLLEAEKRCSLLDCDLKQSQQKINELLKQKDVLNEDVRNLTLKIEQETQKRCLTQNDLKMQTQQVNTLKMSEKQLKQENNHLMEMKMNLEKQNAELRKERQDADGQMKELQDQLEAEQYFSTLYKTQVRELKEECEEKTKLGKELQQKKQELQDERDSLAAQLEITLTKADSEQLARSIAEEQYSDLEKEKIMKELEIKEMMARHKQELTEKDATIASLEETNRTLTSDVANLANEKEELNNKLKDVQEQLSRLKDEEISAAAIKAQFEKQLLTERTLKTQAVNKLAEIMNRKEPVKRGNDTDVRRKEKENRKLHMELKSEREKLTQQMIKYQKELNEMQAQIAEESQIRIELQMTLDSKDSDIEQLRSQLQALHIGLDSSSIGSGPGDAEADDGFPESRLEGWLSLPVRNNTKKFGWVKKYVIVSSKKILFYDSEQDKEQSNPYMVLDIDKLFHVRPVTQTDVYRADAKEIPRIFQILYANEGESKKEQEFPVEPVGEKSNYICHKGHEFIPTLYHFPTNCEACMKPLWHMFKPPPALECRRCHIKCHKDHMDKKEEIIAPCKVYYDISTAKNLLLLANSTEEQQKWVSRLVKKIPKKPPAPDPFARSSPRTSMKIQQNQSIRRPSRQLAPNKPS
Put plainly: IMAP fluorescence polarization Rho kinase assay (IMAP ROCK II kit). Type of assay: biochemical. The conditions noted are these: mean ± SEM; 10 μM ATP, substrate 200 nM, 60 min at 23° C.; read-out: Rho Kinase Inhibition Constants (IC50), IMAP Fluorescence Polarization-Based Assay. The method, then:
as §1
The fluorescence polarization assays are performed using a Biomek 2000 Robotic Workstation (Beckman Instruments, Palo Alto, Calif.) in a 96-well plate format. The assay is performed utilizing the IMAP ROCK II kit (Molecular Devices, Sunnyvale, Calif.) as follows. […] The substrate, enzyme, and ATP dilutions are made with the reaction buffer provided by the vendor. Test compounds are diluted in 10:10 DMSO-ethanol (vol/vol). For the actual assay, the various components are added into black, clear bottom, 96-well plates (Costar, Corning, N.Y.) in a final volume of 20 μl per well. After the enzyme reaction (60 min at 23° C.), 60 μl of the binding solution (IMAP kit provided by vendor) is added per well and incubated for an additional 30 minutes in the dark at 23° C. Fluorescence polarization of the reaction mixtures is then measured on the Analyst™ HT instrument (Molecular Devices, Sunnyvale, Calif.). The data are then analyzed using a non-linear, iterative, sigmoidal-fit computer program purchased from IDBS (Emeryville, Calif.) and as previously described (Sharif et al., ibid.) to generate the inhibition constants for the test compounds.

T1 sequence (O75116 11-552): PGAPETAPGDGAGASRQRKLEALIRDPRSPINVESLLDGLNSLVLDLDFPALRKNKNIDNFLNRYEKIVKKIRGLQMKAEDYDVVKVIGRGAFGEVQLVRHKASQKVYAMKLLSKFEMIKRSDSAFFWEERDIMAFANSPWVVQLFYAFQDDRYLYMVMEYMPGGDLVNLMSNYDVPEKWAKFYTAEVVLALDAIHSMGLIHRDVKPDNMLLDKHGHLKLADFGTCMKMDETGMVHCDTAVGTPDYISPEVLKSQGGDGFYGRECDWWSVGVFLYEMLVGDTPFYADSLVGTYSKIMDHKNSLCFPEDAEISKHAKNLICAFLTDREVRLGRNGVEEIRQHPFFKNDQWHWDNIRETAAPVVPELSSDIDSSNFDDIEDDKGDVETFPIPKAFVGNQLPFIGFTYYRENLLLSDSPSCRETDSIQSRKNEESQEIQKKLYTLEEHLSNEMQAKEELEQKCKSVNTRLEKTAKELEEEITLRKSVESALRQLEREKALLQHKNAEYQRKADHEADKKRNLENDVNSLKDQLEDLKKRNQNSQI

As a reminder, the IC50 is the concentration that inhibits the measured activity by half. In the case of `CC1CN(S(=O)(=O)c2cccc3cnccc23)CCN1` (centres unmarked) [I, reference compound], the half-maximal inhibitory concentration (IC50) in assay [1] is 6700 ± 900 nM. As for `Cc1cncc2cccc(S(=O)(=O)N3CCCNC(C)(C)C3)c12` [F], the half-inhibitory concentration (IC50) worked out at 2010 ± 85 nM in assay [2] and 1510 ± 704 nM in assay [1]. In the same order, the values of `CC1CNCCN1S(=O)(=O)c1cccc2cnccc12` (centres unmarked) [B, reference compound] are 913 ± 644 nM and 2340 ± 395 nM. For `Cc1cncc2cccc(S(=O)(=O)N3CCNC(C)C3)c12` (centres unmarked) [G] the same measures were 2390 ± 1260 nM and 2630 ± 307 nM. Consider `Cc1cncc2cccc(S(=O)(=O)N3CCCN(C)C(C)C3)c12` (centres unmarked) [D], for which the IC50 in assay [2] came out at 270 ± 113 nM; in assay [1], 3460 ± 1800 nM.

In the case of `Cc1cncc2cccc(S(=O)(=O)N3CCCN(C)CC3C)c12` (centres unmarked) [E], the figures for the half-inhibitory concentration (IC50) in assay [2] and in assay [1] were 108 ± 53 nM and 485 ± 207 nM, respectively.
